# Measurements published in US11896704B2, “Compounds useful for the treatment and/or care of the skin, hair, nails and/or mucous membranes” (LUBRIZOL ADVANCED MATERIALS, INC., priority 2017, dated 2024).
# The star is where a group is joined. Palmitoyl = CCCCCCCCCCCCCCCC(=O)*; NHhexadecyl = CCCCCCCCCCCCCCCCN*; NHHex = CCCCCCN*
# How the values were obtained:
# Format in all cases: cell-based
# [1] = system: Human Dermal Fibroblasts (HDFa); assay: Reactive oxygen species (ROS) levels in HDFa, fluorescence; details: 0.05 mM, 30 min, positive control
# Description: Evaluation of Reactive Oxygen Species (ROS) Levels on Human Dermal Fibroblasts (HDFa) by a Fluorescence Approach. Human Dermal Fibroblasts from adult (HDFa, Life Technologies) are seeded at a density of 10,000 cells/well (3 wells per condition) in 96-well plates in culture medium M106 with Low Serum Growth Supplement (LSGS, Life Technologies). Cells are grown during 24 hours at 37° C. in 5% CO2 humidified air. Then, medium is removed and cells are treated with the peptide […] (PEP-1, H-[SEQ ID. NO. 2]-NH2) during 16 hours at 37° C. in 5% CO2 humidified air. Non-treated cells incubated in treatment medium alone are used as basal conditions. […] After 30 min at 37° C. in 5% CO2 humidified air, cells are used to quantify ROS levels. ROS levels are quantified using a Cellular Reactive Oxygen Species Detection Assay Kit (Abcam) according to the manufacture's protocol. […] After the period of time, fluorescence signal is determined using Operetta® confocal microscope (PerkinElmer, Inc). Fluorescence intensities are measured using Mitotracker OrangeTM channel (Excitation Filter: 520-550 nm/Emission Filter: 560-630 nm) and are corrected by the determination of the number of nuclei per well. […]
# [2] = system: mitochondrial complex I (NADH dehydrogenase); assay: Mitochondrial complex I activity in human dermal fibroblasts, colorimetric assay; details: HDFa, 10 mM, 48 hours, positive control
# Description: Inhibition of Mitochondrial Complex I Activity Using an Assay Based on Colorimetric Detection. Human Dermal Fibroblasts from adult (HDFa, Life Technologies) are seeded at a density of 750.000 cells/75 cm^2 flask (one flask per condition) in culture medium M106 with Low Serum Growth Supplement (Life Technologies). Cells are grown during 8 days at 37° C. in 5% CO2 humidified air. Then, medium is removed and cells are treated with scalar dilutions of the peptide […] (PEP-1, H-[SEQ ID. NO. 2]-NH2) at 1, 0.5 and 0.1 mg/ml in culture medium during 48 hours at 37° C. in 5% CO2 humidified air. Non-treated cells incubated in culture medium alone are used as basal conditions. […] After 48 hours of treatment, cells are detached using trypsin and resuspended in 60 ul of Phosphate buffer saline (Sigma). Total protein concentration is measured by a Pierce BCA Protein Assay Kit (BCA Assay, Thermo Scientific) following manufacturer's protocol to adjust the final protein concentration between 700-1000 ug/ml. Briefly, standards and samples are dispensed and Working Reagent is added to the samples. After 30 minutes of incubation at 37° C., absorbance is measured with a microplate reader (Clariostar®, BMG) at 562 nm. Mitochondrial complex I activity is measured with Complex I enzyme activity microplate assay Kit (Abcam) according to the manufacture's protocol. This assay follows the oxidation of NADH to NAD coupled to the reduction of a specific colorimetric dye, leading to an increase in absorbance at 450 nm. In brief, 200 ul of each sample (adjusted to 700-1000 ug/ml of total protein amount) is incubated for 3 hours. After that, wells are washed several times and incubated with Assay Solution provided with the kit (composed by NADH and the specific dye). For the determination of mitochondrial complex I activity, colorimetric increase of Optical Density (OD) at 450 nm in a kinetic reaction along 1 hour is measured with a microplate reader (Clariostar©, BMG). Results are calculated as the rate of increase in OD at 450 nm between two points in the linear zone over time. The percentage of mitochondrial complex I activity relative to basal conditions after the treatment with […] (PEP-1, H-[SEQ ID. NO. 2]-NH2) is represented in Table 9. These values represent the mean for at least three independent assays.
# [3] = system: JARID1A gene; assay: JARID1A gene expression in synchronized human epidermal keratinocytes (HEKa), real time PCR arrays; details: one experiment
# Description: In Vitro Study of JARID1A Gene Expression in Synchronized Human Epidermal Keratinocytes from Adult (HEKa) Using Real Time PCR Arrays.
# HEKa cells (Life Technologies) are seeded at 3.0×10^5 cells/well in 12-well plates (2 wells per condition) and incubated in culture medium, Keratinocyte growth medium supplemented with Mix C39016-CaCl2 solution (Promocell). For synchronization, cells were subjected to two alternative cycles of 12 hours each at 37° C. in 5% CO2 humidified air (day mode) and 33° C. in 5% CO2 humidified air (night mode). 12 hours after starting synchronization, cells are incubated with the peptides at 0.5 mg/ml or (5 μg/ml) in culture medium, depending on the toxicity effects of each peptide (non-toxic conditions are selected). Cells treated with medium alone are used as basal condition.
# At the end of synchronization, cell lysates are collected at two different times: 7:30 hour (early morning point) and 11:30 hour (midday point). Briefly, cells are lysed directly in the wells, and RNA is purified following the protocol described on the RNeasy™ Mini kit (Qiagen) according to the manufacture's protocol. After RNA elution, quantification and analysis of purity of RNA samples are performed with a nanodrop (Thermo). For each sample, 3 μg of high quality RNA is retrotranscribed with iScript Advanced™ (BioRad) in a final volume of 20 μl. Complete reaction mix is incubated in a thermal cycler (Eppendorf) at 42° C. for 30 minutes, and the reaction is stopped at 85° C. for 5 minutes. Complementary DNA is amplified by qPCR in a real-time PCR thermocycler (BioRad) using SYBR Green Supermix™ (BioRad) in the 96-well plate for use with SYBR® Green (BioRad). SYBR Green binds to double-stranded DNA molecules and emits fluorescence which is quantified, and the fluorescence intensity is proportional to the amount of the product in the PCR reaction. Cycling conditions in BioRad CFX96™ instrument are: 95° C. for 3 minutes, followed by 40 cycles of denaturing at 95° C. for 5 seconds, annealing and elongation at 60° C. for 30 seconds. GAPDH (Glyceraldehyde 3-phosphate dehydrogenase), TBP (TATA box binding protein) and HRPT1 (hypoxanthine phosphoribosyltransferase 1) are used as endogenous controls. Fold change relative to the expression of the sample genes and reference genes is calculated using normalized expression (AA(Ct)) method using CFX Manager Software™ (BioRad).
# Fold induction of JARID1A gene at 7:30 hour with respect to basal conditions at 7:30 hour for the samples tested are shown in Table 7. The data for fold induction represent the value of one experiment.
Compound,Fold induction with respect to Basal condition at 7:30h (%) ([3]; 0.5 mg/ml),also measured
"OO [Hydrogen peroxide, Hydrogen Peroxide]",–,Percentage of ROS level relative to basal control conditions (%) [1]: 1309.23%
"CN(C)C(=N)N=C(N)N [Metformin, reference compound]",–,Percentage of mitochondrial complex I activity relative to basal condition (%) [2]: 63.61%
Ac-Phe-Trp-Met-Lys-Arg-Lys-Arg-Val-Pro-NH2 (Ac-FWMKRKRVP-NH2) [PEP-3],126.63,–
Ac-Phe-Trp-Met-Lys-Arg-Lys-Arg-Val-Pro-OH (Ac-FWMKRKRVP-OH) [PEP-6],109.08,–
H-Phe-Trp-Ile-Gln-Arg-Lys-His-Met-Pro-NH2 (H-FWIQRKHMP-NH2) [PEP-10],138.09,–
H-Phe-Trp-Leu-Arg-Arg-Lys-Lys-Ile-Pro-NH2 (H-FWLRRKKIP-NH2) [PEP-9],141.90,–
H-Phe-Trp-Leu-Lys-Arg-Lys-Arg-Val-Pro-NH2 (H-FWLKRKRVP-NH2) [PEP-11],127.91,–
H-Phe-Trp-Met-Arg-Arg-Lys-Arg-Val-Pro-NH2 (H-FWMRRKRVP-NH2) [PEP-12],203.75,–
H-Phe-Trp-Met-Lys-Arg-Lys-Arg-Ile-Pro-NH2 (H-FWMKRKRIP-NH2) [PEP-14],187.65,–
H-Phe-Trp-Met-Lys-Arg-Lys-Arg-Leu-Pro-NH2 (H-FWMKRKRLP-NH2) [PEP-15],123.90,–
H-Phe-Trp-Met-Lys-Arg-Lys-Arg-Val-Pro-NHC6H13 (H-FWMKRKRVP-NHHex; SMILES CCCCCCNC(=O)[C@@H]1CCCN1C(=O)[C@@H](NC(=O)[C@H](CCCNC(=N)N)NC(=O)[C@H](CCCCN)NC(=O)[C@H](CCCNC(=N)N)NC(=O)[C@H](CCCCN)NC(=O)[C@H](CCSC)NC(=O)[C@H](Cc1c[nH]c2ccccc12)NC(=O)[C@@H](N)Cc1ccccc1)C(C)C) [PEP-7],159.64,–
H-Phe-Trp-Met-Lys-Arg-Lys-Arg-Val-Pro-NHC16H33 (H-FWMKRKRVP-NHhexadecyl; SMILES CCCCCCCCCCCCCCCCNC(=O)[C@@H]1CCCN1C(=O)[C@@H](NC(=O)[C@H](CCCNC(=N)N)NC(=O)[C@H](CCCCN)NC(=O)[C@H](CCCNC(=N)N)NC(=O)[C@H](CCCCN)NC(=O)[C@H](CCSC)NC(=O)[C@H](Cc1c[nH]c2ccccc12)NC(=O)[C@@H](N)Cc1ccccc1)C(C)C) [PEP-8],113.64,–
H-Phe-Trp-Met-Lys-Arg-Lys-Arg-Val-Pro-OH (H-FWMKRKRVP-OH) [PEP-4],158.92,–
H-Phe-Trp-Met-Lys-Arg-Lys-Lys-Val-Pro-NH2 (H-FWMKRKKVP-NH2) [PEP-13],147.62,–
Palm-Phe-Trp-Met-Lys-Arg-Lys-Arg-Val-Pro-NH2 (Palmitoyl-FWMKRKRVP-NH2; SMILES CCCCCCCCCCCCCCCC(=O)N[C@@H](Cc1ccccc1)C(=O)N[C@@H](Cc1c[nH]c2ccccc12)C(=O)N[C@@H](CCSC)C(=O)N[C@@H](CCCCN)C(=O)N[C@@H](CCCNC(=N)N)C(=O)N[C@@H](CCCCN)C(=O)N[C@@H](CCCNC(=N)N)C(=O)N[C@H](C(=O)N1CCC[C@H]1C(N)=O)C(C)C) [PEP-2],–,Fold induction with respect to Basal condition at 7:30h (%) ([3]; 0.005 mg/ml): 122.22%
Palm-Phe-Trp-Met-Lys-Arg-Lys-Arg-Val-Pro-OH (Palmitoyl-FWMKRKRVP-OH; SMILES CCCCCCCCCCCCCCCC(=O)N[C@@H](Cc1ccccc1)C(=O)N[C@@H](Cc1c[nH]c2ccccc12)C(=O)N[C@@H](CCSC)C(=O)N[C@@H](CCCCN)C(=O)N[C@@H](CCCNC(=N)N)C(=O)N[C@@H](CCCCN)C(=O)N[C@@H](CCCNC(=N)N)C(=O)N[C@H](C(=O)N1CCC[C@H]1C(=O)O)C(C)C) [PEP-5],–,Fold induction with respect to Basal condition at 7:30h (%) ([3]; 0.005 mg/ml): 121.55%
